Reference: PubChem BioAssay (NCI)
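Results reflect a 48-hour exposure of cells in 96-well plates to compound at five concentrations. TGI: concentration producing complete growth inhibition.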

Assays:
Experiment in all cases: NCI tumour cell line growth inhibition, 48 h
IGROV1 ovarian = test system: IGROV1 ovarian
UACC-62 melanoma = test system: UACC-62 melanoma
OVCAR-3 ovarian = test system: OVCAR-3 ovarian
K-562 leukemia = test system: K-562 leukemia
HT29 colon = test system: HT29 colon
HCT-15 colon = test system: HCT-15 colon
UO-31 renal = test system: UO-31 renal
NCI-H522 lung = test system: NCI-H522 lung
M14 melanoma = test system: M14 melanoma
786-0 renal = test system: 786-0 renal
SW-620 colon = test system: SW-620 colon
SK-MEL-5 melanoma = test system: SK-MEL-5 melanoma
MALME-3M melanoma = test system: MALME-3M melanoma
RXF 393 renal = test system: RXF 393 renal
MCF7 breast = test system: MCF7 breast
LOX IMVI melanoma = test system: LOX IMVI melanoma
HOP-62 NSCLC = test system: HOP-62 NSCLC

CCCCCCCCCCCCCCCCOCC(CC(F)(F)P(=O)(OCC)OCC)OC(C)=O (stereo unspecified)
TGI (IGROV1 ovarian): 21.8 µM
TGI (UACC-62 melanoma): 30.2 µM
TGI (OVCAR-3 ovarian): 31.4 µM
TGI (K-562 leukemia): 48.9 µM
TGI (HT29 colon): 35.5 µM
TGI (HCT-15 colon): 20.2 µM
TGI (UO-31 renal): 29.5 µM
TGI (NCI-H522 lung): 31.2 µM
TGI (M14 melanoma): 31.9 µM
TGI (786-0 renal): 23 µM
TGI (SW-620 colon): 29.7 µM
TGI (SK-MEL-5 melanoma): 36.2 µM
TGI (MALME-3M melanoma): 25.7 µM
TGI (RXF 393 renal): 38.5 µM
TGI (MCF7 breast): 33.5 µM

COC(=O)C1CN=CN1CCc1ccccc1 (stereo unspecified)
TGI (IGROV1 ovarian): > 100 µM
TGI (UACC-62 melanoma): > 100 µM
TGI (OVCAR-3 ovarian): > 100 µM
TGI (LOX IMVI melanoma): > 100 µM
TGI (K-562 leukemia): > 100 µM
TGI (HT29 colon): > 100 µM
TGI (HCT-15 colon): > 100 µM
TGI (UO-31 renal): > 100 µM
TGI (NCI-H522 lung): > 100 µM
TGI (M14 melanoma): > 100 µM
TGI (786-0 renal): > 100 µM
TGI (SW-620 colon): > 100 µM
TGI (SK-MEL-5 melanoma): > 100 µM
TGI (MALME-3M melanoma): > 100 µM
TGI (RXF 393 renal): > 100 µM
TGI (MCF7 breast): > 100 µM

Cn1c2ccc3cc2c(=S)c2cc(ccc21)OCCOCCOCCOCCOCCO3
TGI (IGROV1 ovarian): > 10 µM
TGI (UACC-62 melanoma): > 10 µM
TGI (OVCAR-3 ovarian): > 10 µM
TGI (LOX IMVI melanoma): > 10 µM
TGI (K-562 leukemia): > 10 µM
TGI (HT29 colon): > 10 µM
TGI (HCT-15 colon): > 10 µM
TGI (NCI-H522 lung): > 10 µM
TGI (HOP-62 NSCLC): > 10 µM
TGI (M14 melanoma): > 10 µM
TGI (786-0 renal): > 10 µM
TGI (SW-620 colon): > 10 µM
TGI (SK-MEL-5 melanoma): > 10 µM
TGI (MALME-3M melanoma): > 10 µM
TGI (RXF 393 renal): > 10 µM
TGI (MCF7 breast): > 10 µM

O=C1NCc2ccccc2S(=O)(=O)n2cccc21
TGI (IGROV1 ovarian): > 100 µM
TGI (UACC-62 melanoma): > 100 µM
TGI (OVCAR-3 ovarian): > 100 µM
TGI (LOX IMVI melanoma): > 100 µM
TGI (HT29 colon): > 100 µM
TGI (HCT-15 colon): > 100 µM
TGI (UO-31 renal): > 100 µM
TGI (NCI-H522 lung): > 100 µM
TGI (HOP-62 NSCLC): > 100 µM
TGI (M14 melanoma): > 100 µM
TGI (786-0 renal): > 100 µM
TGI (SW-620 colon): > 100 µM
TGI (SK-MEL-5 melanoma): > 100 µM
TGI (MALME-3M melanoma): > 100 µM
TGI (MCF7 breast): > 100 µM

C=CCc1cccc2cc(C(=O)Nc3ccccc3)c(=N)oc12
TGI (IGROV1 ovarian): > 100 µM
TGI (UACC-62 melanoma): > 100 µM
TGI (OVCAR-3 ovarian): > 100 µM
TGI (LOX IMVI melanoma): > 100 µM
TGI (K-562 leukemia): > 100 µM
TGI (HT29 colon): > 100 µM
TGI (HCT-15 colon): > 100 µM
TGI (NCI-H522 lung): > 100 µM
TGI (HOP-62 NSCLC): > 100 µM
TGI (M14 melanoma): > 100 µM
TGI (786-0 renal): > 100 µM
TGI (SW-620 colon): > 100 µM
TGI (SK-MEL-5 melanoma): > 100 µM
TGI (MALME-3M melanoma): 58.7 µM
TGI (RXF 393 renal): > 100 µM
TGI (MCF7 breast): > 100 µM

CC(=O)OCC1OC(c2nc3ccccc3s2)=CC(OC(C)=O)C1OC(C)=O (stereo unspecified)
TGI (IGROV1 ovarian): > 100 µM
TGI (OVCAR-3 ovarian): > 100 µM
TGI (LOX IMVI melanoma): > 100 µM
TGI (K-562 leukemia): > 100 µM
TGI (HT29 colon): > 100 µM
TGI (UO-31 renal): > 100 µM
TGI (NCI-H522 lung): > 100 µM
TGI (HOP-62 NSCLC): > 100 µM
TGI (786-0 renal): > 100 µM
TGI (SW-620 colon): > 100 µM
TGI (SK-MEL-5 melanoma): > 100 µM
TGI (MALME-3M melanoma): > 100 µM
TGI (RXF 393 renal): > 100 µM
TGI (MCF7 breast): > 100 µM

O=S(=O)(O)C(=Nc1cccc(Cc2ccccc2)c1)Nc1cccc(Cc2ccccc2)c1
TGI (IGROV1 ovarian): 31.3 µM
TGI (UACC-62 melanoma): 30.9 µM
TGI (LOX IMVI melanoma): 26.6 µM
TGI (K-562 leukemia): > 100 µM
TGI (HT29 colon): 34.5 µM
TGI (HCT-15 colon): 35.2 µM
TGI (UO-31 renal): 29.5 µM
TGI (NCI-H522 lung): 29.4 µM
TGI (HOP-62 NSCLC): > 100 µM
TGI (M14 melanoma): 31.8 µM
TGI (786-0 renal): 29 µM
TGI (SW-620 colon): 52.1 µM
TGI (SK-MEL-5 melanoma): 32.4 µM
TGI (MALME-3M melanoma): 32.6 µM
TGI (RXF 393 renal): 33.3 µM
TGI (MCF7 breast): 37.9 µM

N#Cc1c(-c2ccc([N+](=O)[O-])cc2)c(C#N)c(=O)n(NS(=O)(=O)c2ccccc2)c1-c1ccccc1
TGI (IGROV1 ovarian): > 100 µM
TGI (UACC-62 melanoma): > 100 µM
TGI (LOX IMVI melanoma): > 100 µM
TGI (K-562 leukemia): > 100 µM
TGI (HT29 colon): > 100 µM
TGI (HCT-15 colon): > 100 µM
TGI (NCI-H522 lung): > 100 µM
TGI (HOP-62 NSCLC): > 100 µM
TGI (M14 melanoma): > 100 µM
TGI (786-0 renal): > 100 µM
TGI (SW-620 colon): > 100 µM
TGI (SK-MEL-5 melanoma): > 100 µM
TGI (MALME-3M melanoma): > 100 µM
TGI (RXF 393 renal): > 100 µM
TGI (MCF7 breast): > 100 µM

O=c1ccn([C@@H]2C[C@@H]2CO)c(=O)[nH]1
TGI (IGROV1 ovarian): > 100 µM
TGI (UACC-62 melanoma): > 100 µM
TGI (LOX IMVI melanoma): > 100 µM
TGI (K-562 leukemia): > 100 µM
TGI (HT29 colon): > 100 µM
TGI (HCT-15 colon): > 100 µM
TGI (UO-31 renal): > 100 µM
TGI (NCI-H522 lung): > 100 µM
TGI (HOP-62 NSCLC): > 100 µM
TGI (M14 melanoma): > 100 µM
TGI (786-0 renal): > 100 µM
TGI (SW-620 colon): > 100 µM
TGI (SK-MEL-5 melanoma): > 100 µM
TGI (MALME-3M melanoma): > 100 µM
TGI (RXF 393 renal): > 100 µM
TGI (MCF7 breast): > 100 µM

CCOP(=O)(OCC)C(C)(CC)N/C(=N/C(NC(C)=O)(C(F)(F)F)C(F)(F)F)NC1=NC(C(F)(F)F)(C(F)(F)F)N=C(C(F)(F)F)O1 (stereo unspecified)
TGI (IGROV1 ovarian): > 100 µM
TGI (UACC-62 melanoma): > 100 µM
TGI (OVCAR-3 ovarian): > 100 µM
TGI (LOX IMVI melanoma): > 100 µM
TGI (K-562 leukemia): > 100 µM
TGI (HT29 colon): > 100 µM
TGI (HCT-15 colon): > 100 µM
TGI (NCI-H522 lung): 77.7 µM
TGI (HOP-62 NSCLC): > 100 µM
TGI (M14 melanoma): 64.7 µM
TGI (786-0 renal): > 100 µM
TGI (SW-620 colon): > 100 µM
TGI (SK-MEL-5 melanoma): 31.9 µM
TGI (MALME-3M melanoma): 58.2 µM
TGI (RXF 393 renal): 93.8 µM
TGI (MCF7 breast): 68.8 µM

O=c1c2nc3ccccc3c(=O)n2ncn1-c1ccccc1Cl
TGI (IGROV1 ovarian): > 100 µM
TGI (UACC-62 melanoma): > 100 µM
TGI (OVCAR-3 ovarian): > 100 µM
TGI (LOX IMVI melanoma): > 100 µM
TGI (K-562 leukemia): > 100 µM
TGI (HT29 colon): > 100 µM
TGI (HCT-15 colon): > 100 µM
TGI (UO-31 renal): > 100 µM
TGI (NCI-H522 lung): > 100 µM
TGI (HOP-62 NSCLC): > 100 µM
TGI (M14 melanoma): > 100 µM
TGI (786-0 renal): > 100 µM
TGI (SW-620 colon): > 100 µM
TGI (SK-MEL-5 melanoma): > 100 µM
TGI (MALME-3M melanoma): > 100 µM
TGI (MCF7 breast): > 100 µM

N#CC(=C1CCN(CCCC(=O)c2ccc(F)cc2)CC1)c1ccccc1
TGI (IGROV1 ovarian): > 100 µM
TGI (UACC-62 melanoma): > 100 µM
TGI (LOX IMVI melanoma): > 100 µM
TGI (K-562 leukemia): > 100 µM
TGI (HT29 colon): > 100 µM
TGI (HCT-15 colon): > 100 µM
TGI (UO-31 renal): > 100 µM
TGI (NCI-H522 lung): 95.2 µM
TGI (786-0 renal): > 100 µM
TGI (SW-620 colon): > 100 µM
TGI (SK-MEL-5 melanoma): > 100 µM
TGI (MALME-3M melanoma): > 100 µM
TGI (RXF 393 renal): > 100 µM
TGI (MCF7 breast): > 100 µM

CC(=O)O[C@H]1[C@@H]2OC(=O)[C@@](O)(CC3CCCO3)[C@@H]2CC(=O)[C@](C)(O)CC/C=C(\C)CCC[C@@H]1C (stereo partly specified)
TGI (IGROV1 ovarian): > 100 µM
TGI (UACC-62 melanoma): > 100 µM
TGI (OVCAR-3 ovarian): > 100 µM
TGI (LOX IMVI melanoma): 46.1 µM
TGI (K-562 leukemia): 90.9 µM
TGI (HCT-15 colon): > 100 µM
TGI (UO-31 renal): > 100 µM
TGI (NCI-H522 lung): 72.4 µM
TGI (M14 melanoma): > 100 µM
TGI (786-0 renal): > 100 µM
TGI (SW-620 colon): 49.2 µM
TGI (SK-MEL-5 melanoma): > 100 µM
TGI (MALME-3M melanoma): > 100 µM
TGI (RXF 393 renal): 35.9 µM
TGI (MCF7 breast): > 100 µM

S=C1N(/N=C/c2c3ccccc3cc3ccccc23)C(=Nc2ccccc2)C(=Nc2ccccc2)N1c1ccccc1
TGI (IGROV1 ovarian): > 100 µM
TGI (UACC-62 melanoma): > 100 µM
TGI (OVCAR-3 ovarian): > 100 µM
TGI (K-562 leukemia): > 100 µM
TGI (HT29 colon): > 100 µM
TGI (HCT-15 colon): > 100 µM
TGI (UO-31 renal): > 100 µM
TGI (NCI-H522 lung): > 100 µM
TGI (HOP-62 NSCLC): > 100 µM
TGI (M14 melanoma): > 100 µM
TGI (786-0 renal): > 100 µM
TGI (SW-620 colon): > 100 µM
TGI (SK-MEL-5 melanoma): > 100 µM
TGI (MALME-3M melanoma): > 100 µM
TGI (RXF 393 renal): > 100 µM
TGI (MCF7 breast): > 100 µM
